Experimental data reported in US12133920B2, “Stabilization of beta-hydroxyisovaleric acid formulations in soft gel capsules” (TSI Group Ltd., priority 2016, dated 2024).

Assay: Accelerated stability test: HMB-FA contents per capsule
Type: physicochemical
Conditions: for HMB FA contents: 40±2° C., 75% RH±5% RH, sealed HDPE bottles, HMB-FA 75 wt %, betaine anhydrous 18 wt %, purified water 7 wt %
Description: Accelerated Stability Test: To assess how the quality and purity of the instantly disclosed composition would vary with time under the influence of environmental factors of temperature and humidity, accelerated stability tests were performed. Tests were carried out according to guidelines provided in Stability Testing of New Drug Substances and Products issued by ICH and Stability testing guideline of dietary supplements by NSF. NSF Stability Testing Working Group, Stability testing guideline of dietary supplements, January 2011. […] The gel capsule composition was HMB-FA 75 wt %; betaine anhydrous 18 wt % and purified water 7 wt %. Samples were repacked in HDPE bottles (size: 1 80 ct, 300 rnl) then sealed with aluminum foil. Samples were exposed to high temperature and high humidity (40±2° C.; 75% RH±5% RH) and evaluated at 1, 2, and 3 months.

- HMB FA contents (0 months): 519 mg/capsule
- HMB FA contents (1 month): 494.4 mg/capsule
- HMB FA contents (2 months): 484.8 mg/capsule
- HMB FA contents (3 months): 491.8 mg/capsule
- stability of HMB FA (overall) (high heat high humidity environments, periods exceeding three months): substantially stable
Compound: CC(C)(O)CC(=O)O [HMB FA, Beta-hydroxyisovaleric acid]
